Assay results taken from patent US8642629B2, “Naphthylacetic acids” (Hoffmann-La Roche Inc., priority 2008, dated 2014).

Target: T1, human CRTH2 (Homo sapiens, UniProt Q9Y5Y4)
T1 construct: expressed in transfected cells; host or cells: CHO-K1
T1 sequence (Q9Y5Y4 1-395): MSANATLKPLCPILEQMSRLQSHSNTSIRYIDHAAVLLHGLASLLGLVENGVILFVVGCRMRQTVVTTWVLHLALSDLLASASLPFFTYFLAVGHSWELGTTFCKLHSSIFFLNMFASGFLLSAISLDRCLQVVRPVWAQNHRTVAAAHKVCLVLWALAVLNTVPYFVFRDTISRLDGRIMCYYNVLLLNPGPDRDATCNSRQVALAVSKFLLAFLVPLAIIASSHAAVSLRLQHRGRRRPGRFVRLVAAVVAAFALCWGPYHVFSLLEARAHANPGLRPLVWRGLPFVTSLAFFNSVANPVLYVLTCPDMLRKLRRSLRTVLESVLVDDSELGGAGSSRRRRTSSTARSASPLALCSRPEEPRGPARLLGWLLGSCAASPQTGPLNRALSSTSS
Test: Human CRTH2 Receptor Binding Assay (whole cell, [3H]ramatroban competition)
Settings: CHO-K1 cells expressing human CRTH2 and G-alpha16; 20 nM [3H]ramatroban; 1 hour, room temperature
Description: A whole cell receptor binding assay using [^3H]ramatroban as the competing radioactive ligand was employed to evaluate the compound binding activity to human CRTH2. The radioactive ligand [^3H]ramatroban was synthesized according to Sugimoto et. al. (Eur. J. Pharmacol. 524, 30-37, 2005) to a specific activity of 42 Ci/mmol.
A cell line stably expressing human CRTH2 was established by transfecting CHO-K1 cells with two mammalian expression vectors that harbored human CRTH2 and G-alpha16 cDNAs, respectively, using FuGene® 6 transfection reagent (from Roche). Stable clones expressing CRTH2 were selected by staining each clone with BM16 (BD Pharmingen™ from BD Biosciences, a division of Becton, Dickinson and Company), which is a rat monoclonal antibody to human CRTH2. The cells were maintained as monolayer cultures in Ham's F-12 medium containing 10% fetal bovine serum, 100 units/mL penicillin, 100 μg/mL streptomycin, 2 mM glutamine, 0.5 mg/mL G418 (geneticin) for CRTH2, and 0.2 mg/mL hygromycin-B (for G-alpha 16). For whole cell receptor binding assay, the monolayer cells were rinsed once with PBS (phosphate buffered saline), dissociated using ethylenediaminetetraacetate (Versene™ EDTA from Lonza Inc.), and suspended in PBS containing 10 mM MgCl2 and 0.06% BSA (bovine serum albumin) at 1.5×10^6 cells/mL.
The binding reactions (0.2 mL) were performed in 96-well plates at room temperature in PBS containing 1.5×10^5 cells, 10 mM MgCl2, 0.06% BSA, 20 nM [^3H]ramatroban, and test compound at various concentrations. After 1 hour of binding reactions, the cells were harvested on GF™/B filter microplates (microtiter plates with embedded glass fiber from PerkinElmer, Inc.) and washed 5 times with PBS using a Filtermate™ Harvester (a cell harvester that harvests and washes cells from microplates from PerkinElmer, Inc.). The radioactivities bound to the cells were determined using a microplate scintillation counter (TopCount® NXT, from PerkinElmer, Inc.) after adding 50 μL of Microscint™ 20 scintillation fluid (from PerkinElmer, Inc.) to each well of the filter plates. The radioactivity from non-specific binding was determined by replacing compound with 10 μM of 15(R)-15-methyl PGD2 (from Cayman Chemical Company) in the reaction mixtures. The radioactivity bound to the cells in the absence of compound (total binding) was determined by replacing compound with 0.25% of DMSO (dimethyl sulfoxide) in the reaction mixture. Specific binding data were obtained by subtracting the radioactivity of non-specific binding from each binding data.
The IC50 value is defined as the concentration of the tested compound that is required for 50% inhibition of total specific binding. In order to calculate the IC50 value, the percent inhibition data were determined for 7 concentrations for each compound. The percent inhibition for a compound at each concentration was calculated according to the following formula, [1−(specific binding in the presence of compound)/(total specific binding)]×100. The IC50 value was then obtained by fitting the percent inhibition data to a sigmoidal dose-response (4 parameter logistic) model in the XLfit® software Excel add-in program [from ID Business Solutions Ltd., model 205, where F(x)=(A+(B−A)/(1+((C/x)^D)))].

**Q.** For Cc1c(CC(=O)O)cc2ccc(Cl)cc2c1Oc1ccc(C#N)cc1 [Example 2-45, [6-chloro-4-(4-cyano-phenoxy)-3-methyl-naphthalen-2-yl]-acetic acid], which IC50 is on record?
**A.** 134 nM

**Q.** Which IC50 does the source give for CCS(=O)(=O)c1ccc(Oc2cc(CC(=O)O)cc3ccc(F)cc23)c(C)c1 [Example 1-8, [4-(4-ethanesulfonyl-2-methyl-phenoxy)-6-fluoro-naphthalen-2-yl]-acetic acid] here?
**A.** 3.3 nM

**Q.** With CCS(=O)(=O)c1ccc(Oc2c(F)c(CC(=O)O)cc3ccc(F)cc23)nc1 [Example 5-1, [4-(5-ethanesulfonyl-pyridin-2-yloxy)-3,6-difluoro-naphthalen-2-yl]-acetic acid] as the compound, how does the IC50 read?
**A.** 3.1 nM

**Q.** How did the IC50 turn out when CCS(=O)(=O)c1ccc(Oc2cc(CC(=O)O)cc3ccc(OC(F)(F)F)cc23)cc1 [Example 1-19, [4-(4-Ethanesulfonyl-phenoxy)-6-trifluoromethoxy-naphthalen-2-yl]-acetic acid] was run?
**A.** 2.6 nM

**Q.** CS(=O)(=O)c1ccc(S(=O)(=O)c2cc(CC(=O)O)cc3ccc(F)cc23)cc1 [Example 11-1, [6-fluoro-4-(4-methanesulfonyl-benzenesulfonyl)-naphthalen-2-yl]-acetic acid] was tested. Which IC50 did it give?
**A.** 7.7 nM

**Q.** Cc1c(CC(=O)O)cc2ccc(F)cc2c1Oc1ccc(S(=O)(=O)c2ccccc2)cc1 [Example 2-28, [4-(4-benzenesulfonyl-phenoxy)-6-fluoro-3-methyl-naphthalen-2-yl]-acetic acid] was tested. Which IC50 did it give?
**A.** 5 nM

**Q.** Which IC50 does the source give for Cc1c(CC(=O)O)cc2ccc(F)cc2c1Oc1ccc(S(=O)(=O)N2CCCC2)cc1 [Example 2-38, {6-fluoro-3-methyl-4-[4-(pyrrolidine-1-sulfonyl)-phenoxy]-naphthalen-2-yl}-acetic acid] here?
**A.** 2.2 nM

**Q.** Which IC50 does the source give for Cc1c(CC(=O)O)cc2ccc(F)cc2c1Oc1ccc(S(C)(=O)=O)c(F)c1 [Example 2-16, [6-fluoro-4-(3-fluoro-4-methanesulfonyl-phenoxy)-3-methyl-naphthalen-2-yl]-acetic acid] here?
**A.** 3.4 nM

**Q.** For Cc1c(CC(=O)O)cc2ccc(F)cc2c1Oc1ccc(S(=O)(=O)c2ccc(Cl)cc2)cc1 [Example 2-31, {4-[4-(4-chloro-benzenesulfonyl)-phenoxy]-6-fluoro-3-methyl-naphthalen-2-yl}-acetic acid], which IC50 is on record?
**A.** 3.6 nM

**Q.** CCS(=O)(=O)c1ccc(Oc2cc(CC(=O)O)cc3ccc(C(F)(F)F)cc23)nc1 [Example 1-16, [4-(5-Ethanesulfonyl-pyridin-2-yloxy)-6-trifluoromethyl-naphthalen-2-yl]-acetic acid] was tested. Which IC50 did it give?
**A.** 19.1 nM

**Q.** C=Cc1c(CC(=O)O)cc2ccc(F)cc2c1Oc1ccc(S(=O)(=O)CC)cn1 [Example 17-1, [4-(5-Ethanesulfonyl-pyridin-2-yloxy)-6-fluoro-3-vinyl-naphthalen-2-yl]-acetic acid] was tested. Which IC50 did it give?
**A.** 12.4 nM

**Q.** With Cc1c(CC(=O)O)cc2ccc(F)cc2c1Oc1ccc(S(=O)(=O)N2CC3(COC3)C2)cc1 [Example 2-43, {6-fluoro-3-methyl-4-[4-(2-oxa-6-aza-spiro[3.3]heptane-6-sulfonyl)-phenoxy]-naphthalen-2-yl}-acetic acid] as the compound, how does the IC50 read?
**A.** 1.8 nM

**Q.** Which IC50 does the source give for Cc1c(CC(=O)O)cc2ccc(F)cc2c1Oc1ccc(S(=O)(=O)c2ccc(F)cc2)cc1 [Example 2-27, {6-fluoro-4-[4-(4-fluoro-benzenesulfonyl)-phenoxy]-3-methyl-naphthalen-2-yl}-acetic acid] here?
**A.** 2.9 nM

**Q.** Which IC50 does the source give for CCS(=O)(=O)c1ccc(Oc2cc(CC(=O)O)cc3ccc(C)cc23)nc1 [Example 13-1, [4-(5-Ethanesulfonyl-pyridin-2-yloxy)-6-methyl-naphthalen-2-yl]-acetic acid] here?
**A.** 73.7 nM

**Q.** How did the IC50 turn out when CS(=O)(=O)c1ccc(Oc2cc(CC(=O)O)c(F)c3ccc(F)cc23)nc1 [Example 4-1, [1,6-difluoro-4-(5-methanesulfonyl-pyridin-2-yloxy)-naphthalen-2-yl]-acetic acid] was run?
**A.** 7.9 nM

**Q.** Which IC50 does the source give for Cc1c(CC(=O)O)cc2ccc(F)cc2c1Oc1ccc(S(=O)(=O)N2CCC(F)(F)CC2)cc1 [Example 2-42, {4-[4-(4,4-difluoro-piperidine-1-sulfonyl)-phenoxy]-6-fluoro-3-methyl-naphthalen-2-yl}-acetic acid] here?
**A.** 2.9 nM

**Q.** With CCS(=O)(=O)c1ccc(Oc2cc(CC(=O)O)cc3ccc(C(F)(F)F)cc23)cc1 [Example 1-17, [4-(4-Ethanesulfonyl-phenoxy)-6-trifluoromethyl-naphthalen-2-yl]-acetic acid] as the compound, how does the IC50 read?
**A.** 10.5 nM

**Q.** CCS(=O)(=O)c1cnc(Oc2c(C)c(CC(=O)O)cc3ccc(F)cc23)c(C2CC2)c1 [Example 21-1, [4-(3-Cyclopropyl-5-ethanesulfonyl-pyridin-2-yloxy)-6-fluoro-3-methyl-naphthalen-2-yl]-acetic acid] was tested. Which IC50 did it give?
**A.** 2.8 nM

**Q.** For CCS(=O)(=O)c1ccc(Oc2c(C)c(C(C)C(=O)O)cc3ccc(F)cc23)nc1 (centres unmarked) [Example 22-1, 2-[4-(5-Ethanesulfonyl-pyridin-2-yloxy)-6-fluoro-3-methyl-naphthalen-2-yl]-propionic acid], which IC50 is on record?
**A.** 378 nM

**Q.** With CS(=O)(=O)c1ccc(Oc2cc(CC(=O)O)cc3ccc(F)cc23)cc1 [Example 1-2, [6-fluoro-4-(4-methanesulfonyl-phenoxy)-naphthalen-2-yl]-acetic acid] as the compound, how does the IC50 read?
**A.** 3.1 nM

**Q.** Cc1cc(Oc2c(C)c(CC(=O)O)cc3ccc(F)cc23)ccc1S(C)(=O)=O [Example 2-6, [6-fluoro-4-(4-methanesulfonyl-3-methyl-phenoxy)-3-methyl-naphthalen-2-yl]-acetic acid] was tested. Which IC50 did it give?
**A.** 2.7 nM

**Q.** With O=C(O)Cc1cc(Oc2ccc(S(=O)(=O)C3CC3)cc2)c2cc(F)ccc2c1 [Example 1-5, [4-(4-cyclopropanesulfonyl-phenoxy)-6-fluoro-naphthalen-2-yl]-acetic acid] as the compound, how does the IC50 read?
**A.** 9.3 nM

**Q.** With CCS(=O)(=O)c1cc(Cl)c(Oc2c(C)c(CC(=O)O)cc3ccc(F)cc23)cc1F [Example 2-25, [4-(2-chloro-4-ethanesulfonyl-5-fluoro-phenoxy)-6-fluoro-3-methyl-naphthalen-2-yl]-acetic acid] as the compound, how does the IC50 read?
**A.** 2.4 nM

**Q.** Which IC50 does the source give for CCS(=O)(=O)c1ccc(Oc2cc(CC(=O)O)c(C)c3ccc(F)cc23)nc1 [Example 6-1, [4-(5-ethanesulfonyl-pyridin-2-yloxy)-6-fluoro-1-methyl-naphthalen-2-yl]-acetic acid] here?
**A.** 32.1 nM

**Q.** With Cc1cc(S(C)(=O)=O)ccc1Oc1c(C)c(CC(=O)O)cc2ccc(F)cc12 [Example 2-3, [6-fluoro-4-(4-methanesulfonyl-2-methyl-phenoxy)-3-methyl-naphthalen-2-yl]-acetic acid] as the compound, how does the IC50 read?
**A.** 7.5 nM

**Q.** CCN(CC)S(=O)(=O)c1ccc(Oc2c(C)c(CC(=O)O)cc3ccc(F)cc23)cc1 [Example 2-39, [4-(4-diethylsulfamoyl-phenoxy)-6-fluoro-3-methyl-naphthalen-2-yl]-acetic acid] was tested. Which IC50 did it give?
**A.** 2 nM

**Q.** For CCS(=O)(=O)c1cc(F)c(Oc2c(C)c(CC(=O)O)cc3ccc(F)cc23)cc1Cl [Example 2-24, [4-(5-chloro-4-ethanesulfonyl-2-fluoro-phenoxy)-6-fluoro-3-methyl-naphthalen-2-yl]-acetic acid], which IC50 is on record?
**A.** 8.2 nM

**Q.** How did the IC50 turn out when Cc1c(CC(=O)O)cc2ccc(F)cc2c1Oc1ccc(S(=O)(=O)N2CCN(C)CC2)cc1 [Example 2-41, {6-fluoro-3-methyl-4-[4-(4-methyl-piperazine-1-sulfonyl)-phenoxy]-naphthalen-2-yl}-acetic acid] was run?
**A.** 1.7 nM

**Q.** With Cc1c(CC(=O)O)cc2ccc(F)cc2c1Oc1ccc(S(C)(=O)=O)c(Cl)c1 [Example 2-11, [4-(3-chloro-4-methanesulfonyl-phenoxy)-6-fluoro-3-methyl-naphthalen-2-yl]-acetic acid] as the compound, how does the IC50 read?
**A.** 3 nM
